From patent US12552772B2, “2-pyrazole anilines and related analogs for inhibiting YAP/TAZ-TEAD” (KATHOLIEKE UNIVERSITEIT LEUVEN, priority 2021, dated 2026) come the findings set out here.

The experiment deals with YAP/TAZ-TEAD transcription. Description: Reporter gene assay for measuring the inhibition of YAP/TAZ-TEAD transcription (TEAD-responsive element luciferase reporter in Hek293T cells). It is filed as cell-based. Conditions: Homo sapiens, HEK-293T, 24 hours incubation. An outline of the steps: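 Percent inhibition, scaled between vehicle (0%) and a positive control inhibitor (100%), came from SteadyLite luciferase signal after 24 h compound exposure at 37 °C/5% CO2. Cells: Hek293T transiently carrying a TEAD-responsive luciferase reporter; EC50 derived.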
Background: Reporter assays use an easily measured gene product as a stand-in for the process of interest.

With `C=CC(=O)NCc1ccc(-c2ccc(F)cc2)cc1C1CCN(C)C1` (centres unmarked) [compound 183, N-((4′-fluoro-3-(1-methylpyrrolidin-3-yl)-[1,1′-biphenyl]-4-yl)methyl)acrylamide], the 50% effective concentration (EC50) (usually the concentration needed to bring the measured effect to its halfway point) was in the range of 1000 to 20000 nM.
In the case of `C=CC(=O)NCc1ccc(-c2ccc(F)cc2)cc1-c1cnn(C(F)F)n1` [compound 186, N-((3-(2-(difluoromethyl)-2H-1,2,3-triazol-4-yl)-4′-fluoro-[1,1′-biphenyl]-4-yl)methyl)acrylamide] it was less than 1000 nM; in that of `C=CC(=O)NCc1ccc(-c2ccc(F)cc2)cc1-c1nnnn1C` [compound 189, N-((4′-fluoro-3-(1-methyl-1H-tetrazol-5-yl)-[1,1′-biphenyl]-4-yl)methyl)acrylamide], 1000 to 20000 nM; in that of `C=CC(=O)NCc1ccc(-c2ccc(F)cc2)cc1-n1ccnn1` [compound 191, N-((4′-fluoro-3-(1H-1,2,3-triazol-1-yl)-[1,1′-biphenyl]-4-yl)methyl)acrylamide], less than 1000 nM.
The figure for `C=CC(=O)NCc1c(F)cc(-c2ccc(C(F)(F)F)cc2)cc1-c1ccn(C)n1` [compound 192, N-((3-fluoro-5-(1-methyl-1H-pyrazol-3-yl)-4′-(trifluoromethyl)-[1,1′-biphenyl]-4-yl)methyl)acrylamide] is less than 1000 nM.
In the case of `C=CC(=O)NCc1ccc(-c2ccc(F)cc2)nc1-c1ccn(CC2CC2)n1` [compound 195, N-((2-(1-(cyclopropylmethyl)-1H-pyrazol-3-yl)-6-(4-fluorophenyl)pyridin-3-yl)methyl)acrylamide] it was less than 1000 nM.
Consider `C=CC(=O)NCc1ccc(-c2ccc(F)cc2)nc1-c1ccn(C2CC2)n1` [compound 196, N-((2-(1-cyclopropyl-1H-pyrazol-3-yl)-6-(4-fluorophenyl)pyridin-3-yl)methyl)acrylamide], for which the concentration for a half-maximal effect (EC50) was less than 1000 nM.
In the case of `C=CC(=O)NCc1ccc(-c2ccc(F)cc2)nc1-c1ccnn1C1CC1` [compound 197, N-((2-(1-cyclopropyl-1H-pyrazol-5-yl)-6-(4-fluorophenyl)pyridin-3-yl)methyl)acrylamide] it was 1000 to 20000 nM; in that of `C=CC(=O)NCc1ccc(-c2ccc(F)cc2)nc1-c1nnn(C(F)F)n1` [compound 199, N-((2-(2-(difluoromethyl)-2H-tetrazol-5-yl)-6-(4-fluorophenyl)pyridin-3-yl)methyl)acrylamide], less than 1000 nM; in that of `C=CC(=O)NCc1ccc(-c2ccc(F)cc2)nc1-c1nn[nH]n1` [compound 200, N-((6-(4-fluorophenyl)-2-(2H-tetrazol-5-yl)pyridin-3-yl)methyl)acrylamide], greater than 20000 nM.
In the case of `C=CC(=O)NCc1ncc(-c2ccc(F)cc2)cc1-c1nnn(C(F)F)n1` [compound 204, N-((3-(2-(difluoromethyl)-2H-tetrazol-5-yl)-5-(4-fluorophenyl)pyridin-2-yl)methyl)acrylamide] it was less than 1000 nM; in that of `CN(C)C/C=C/C(=O)NCc1cnc(-c2ccc(F)cc2)cc1-c1ccn(C(F)F)n1` [compound 208, (E)-N-((4-(1-(difluoromethyl)-1H-pyrazol-3-yl)-6-(4-fluorophenyl)pyridin-3-yl)methyl)-4-(dimethylamino)but-2-enamide], greater than 20000 nM; in that of `C=CC(=O)NCc1cnc(-c2ccc(C(F)(F)F)cc2)cc1-c1ccn(C(F)F)n1` [compound 209, N-((4-(1-(difluoromethyl)-1H-pyrazol-3-yl)-6-(4-(trifluoromethyl)phenyl)pyridin-3-yl)methyl)acrylamide], less than 1000 nM.
In the case of `C=CC(=O)NCc1cnc(-c2ccc(Cl)cc2)cc1-c1ccn(C(F)F)n1` [compound 210, N-((6-(4-chlorophenyl)-4-(1-(difluoromethyl)-1H-pyrazol-3-yl)pyridin-3-yl)methyl)acrylamide] it was less than 1000 nM; in that of `CCC(=O)NCc1cnc(-c2cccc(F)c2)cc1-c1ccn(C(F)F)n1` [compound 212, N-((4-(1-(difluoromethyl)-1H-pyrazol-3-yl)-6-(3-fluorophenyl)pyridin-3-yl)methyl)propionamide], 1000 to 20000 nM; in that of `CCC(=O)NCc1cnc(-c2cccc(Cl)c2)cc1-c1ccn(C(F)F)n1` [compound 214, N-((6-(3-chlorophenyl)-4-(1-(difluoromethyl)-1H-pyrazol-3-yl)pyridin-3-yl)methyl)propionamide], greater than 20000 nM.
With `CCC(=O)NCc1cnc(-c2cccc(C(F)(F)F)c2)cc1-c1ccn(C(F)F)n1` [compound 216, N-((4-(1-(difluoromethyl)-1H-pyrazol-3-yl)-6-(3-(trifluoromethyl)phenyl)pyridin-3-yl)methyl)propionamide], the concentration giving a half-maximal response (EC50) is greater than 20000 nM.
`C=CC(=O)NCc1cnc(-c2ccc(C(F)F)cc2)cc1-c1ccn(C(F)F)n1` [compound 217, N-((4-(1-(difluoromethyl)-1H-pyrazol-3-yl)-6-(4-(difluoromethyl)phenyl)pyridin-3-yl)methyl)acrylamide] showed a concentration giving a half-maximal response (EC50) of less than 1000 nM.
In the case of `C=CC(=O)NCc1cc(-c2ccn(C(F)F)n2)cc(-c2ccc(F)cc2)n1` [compound 218, N-((4-(1-(difluoromethyl)-1H-pyrazol-3-yl)-6-(4-fluorophenyl)pyridin-2-yl)methyl)acrylamide] it was less than 1000 nM; in that of `C=CC(=O)NCc1cnc(-c2ccc(C#N)cc2)cc1-c1ccn(C(F)F)n1` [compound 219, N-((6-(4-cyanophenyl)-4-(1-(difluoromethyl)-1H-pyrazol-3-yl)pyridin-3-yl)methyl)acrylamide], less than 1000 nM.
The figure for `C=CC(=O)NCc1cnc(-c2cccc(C#N)c2)cc1-c1ccn(C(F)F)n1` [compound 220, N-((6-(3-cyanophenyl)-4-(1-(difluoromethyl)-1H-pyrazol-3-yl)pyridin-3-yl)methyl)acrylamide] is less than 1000 nM; for `C=CC(=O)NCc1cnc(-c2ccn(C(F)F)n2)cc1N1CCC(F)(F)CC1` [compound 222, N-((6-(1-(difluoromethyl)-1H-pyrazol-3-yl)-4-(4,4-difluoropiperidin-1-yl)pyridin-3-yl)methyl)acrylamide] it is 1000 to 20000 nM.
`CCC(=O)NCc1cc(-c2ccc(F)cc2)cc(-c2ccn(C(F)F)n2)n1` [compound 226, N-((6-(1-(difluoromethyl)-1H-pyrazol-3-yl)-4-(4-fluorophenyl)pyridin-2-yl)methyl)propionamide] yielded an EC50 of less than 1000 nM.
The figure for `C=CC(=O)NCc1cnc(-c2ccc(F)cc2)cc1-c1cnn(C(F)F)n1` [compound 230, N-((4-(2-(difluoromethyl)-2H-1,2,3-triazol-4-yl)-6-(4-fluorophenyl)pyridin-3-yl)methyl)acrylamide] is less than 1000 nM; for `CCC(=O)NCc1cnc(-c2ccc(F)cc2)cc1-c1cc2n(n1)CCCC2` [compound 232, N-((6-(4-fluorophenyl)-4-(4,5,6,7-tetrahydropyrazolo[1,5-a]pyridin-2-yl)pyridin-3-yl)methyl)propionamide] it is less than 1000 nM.
In the case of `CCC(=O)NCc1cc(=O)n(-c2ccc(F)cc2)cc1-c1ccn(C)n1` [compound 236, N-((1-(4-fluorophenyl)-5-(1-methyl-1H-pyrazol-3-yl)-2-oxo-1,2-dihydropyridin-4-yl)methyl)propionamide] it was 1000 to 20000 nM.
